Measured values as given in US11795177B2, “Substituted quinoline analogs as aldehyde dehydrogenase 1A1 (ALDH1A1) inhibitors” (THE UNITED STATES OF AMERICA, AS REPRESENTED BY THE …, priority 2017, dated 2023).
Structures can show the parent of a compound that is named as a salt.

test system: MIA PaCa-2 cells; assay: MIA PaCa2 cell-based assay (1,536-well high-content imaging ALDEFLUOR assay); parameters: species or system human; conditions: Homo sapiens, 0.5 h, ALDEFLUOR BAAA substrate 500 nM, 30 minutes
Experimental: Example 359. MIA PaCa2 Cell-Based Assay (In Vitro Assay)
1,536-Well High-Content Imaging ALDEFLUOR Assay
The ALDEFLUOR™ kit was purchased from […] Technologies (Vancouver, Canada; #01700). MIA PaCa-2 cells (5 μL; 1,000 cells/well) were dispensed into black, optical quality (cyclic olefin copolymer) clear bottom, medium binding TC treated 1,536-well plates (Aurora Microplates, Whitefish Mont.) using a Multidrop Combi dispenser (ThermoFisher) and incubated overnight (37° C., 5% CO2, 85% RH). Media (RPMI 1640 (Life Technologies, Carlsbad, Calif.), supplemented with 2 mM L-Glutamine (Life Technologies), 10% HyClone™ fetal bovine serum (FBS, GE Healthcare, Piscataway, N.J.) and 100 U/mL penicillin and 100 μg/mL streptomycin (Life Technologies)) was subsequently removed by centrifuging plates upside down using a plate adaptor to collect media. A solution of BAAA substrate ([…] Technologies) and Hoechst 33342 (ThermoFisher, final concentrations of 500 nM and 0.5 nM, respectively) in ALDEFLUOR™ buffer ([…] Technologies #01700) was dispensed onto cells using a Multidrop Combi followed by immediate transfer (23 nL) of compound or control solutions using a Wako Pin-tool (final percentage of DMSO in the cell plates was 0.5%). Unless otherwise noted, all compounds were assayed as 16-point dilutions spanning a final concentration range of 1.4 nM to 47.8 μM. The neutral and positive assay controls were DMSO and DEAB (4.6 μM), respectively. Cells were incubated for 30 minutes or the indicated amount of time at 37° C., 5% CO2, 85% RH to allow the conversion of BAAA into BAA. Supernatant was subsequently removed by centrifugation as described above, then ALDEFLUOR™ buffer (3 μl) was dispensed by Multidrop Combi before imaging on an IN Cell 2200 (GE Healthcare).
The above assay was modified for an online robotic screening system. After cell plating and overnight incubation, 4 μL of media were removed using a 64-tip metal aspirator head on a Wako aspirator station, leaving 1 μL remaining in the well, followed by a 4 μL dispense of BAAA and Hoechst 33342 in ALDEFLUOR™ buffer, for a final concentration of 500 nM and 0.5 nM, respectively Immediately following the dispense, 23 nL of compound or control solutions were transferred using a Wako Pin-tool. Cells were incubated for 30 minutes at 37° C., 5% CO2, 85% RH, followed by a 4 μL media removal using the Wako aspirator, and a subsequent 3 μL addition of ALDEFLUOR™ buffer. Plates were then immediately read on the IN Cell 2200 as described below.
Image Acquisition and Analysis
For images captured on the IN Cell 2200 widefield automated microscope, a 10×0.45 NA Plan Apo objective lens was used to capture the entire well of the 1,536-well plate using standard DAPI (390/18×, 432/48 m) and FITC (475/28×, 525/48 m) filter sets at 50 msec and 100 msec exposures, respectively. Images were subsequently analyzed using IN Cell Investigator v1.6.2 analysis software's canned Multi-Target Analysis algorithm (GE Healthcare). Hoechst stained nuclei were identified using top hat segmentation with a minimum area of 75 μm^2 and sensitivity of 93. BAA-retaining cells captured via FITC channel, were identified using multiscale top hat segmentation with a minimum area of 100 μm^2 and a sensitivity setting of 16. […] Data were plotted using GraphPad Prism software (GraphPad, San Diego, Calif.).

SMILES | IC50 [nM]
N#CC1CCN(c2c(C(=O)N3CCN(C(=O)C4CC4)CC3)cnc3ccc(F)cc23)CC1 [Cpd. 302, 1-(3-(4-(cyclopropanecarbonyl)piperazine-1-carbonyl)-6-fluoroquinolin-4-yl)piperidine-4-carbonitrile] | > 10000
O=C(c1cnc2ccc(F)cc2c1N1CCC(F)(F)CC1)N1CCN(C(=O)C2CC2)CC1 [Example 63, (4-(cyclopropanecarbonyl)piperazin-1-yl)(4-(4,4-difluoropiperidin-1-yl)-6-fluoroquinolin-3-yl)methanone] | > 10000
COc1ccc2ncc(C(=O)N3CCN(C(=O)C4CC4)CC3)c(N3CCC4(CC3)OCCO4)c2c1 [Example 1, (4-(cyclopropanecarbonyl)piperazin-1-yl)(6-methoxy-4-(1,4-dioxa-8-azaspiro[4.5]decan-8-yl)quinolin-3-yl)methanone, TFA] | 1000 to 10000
CC1(C#N)CCN(c2c(C(=O)N3CCN(S(C)(=O)=O)CC3)cnc3ccsc23)CC1 [Example 234, 4-methyl-1-(6-(4-(methylsulfonyl)piperazine-1-carbonyl)thieno[3,2-b]pyridin-7-yl)piperidine-4-carbonitrile] | 1000 to 10000
O=C(c1cnc2ccc(F)cc2c1N1CCC2(CCCCC2)C1)N1CCN(C(=O)C2CC2)CC1 [Example 79, (4-(cyclopropanecarbonyl)piperazin-1-yl)(6-fluoro-4-(2-azaspiro[4.5]decan-2-yl)quinolin-3-yl)methanone] | > 10000
C[C@H]1CN(C(=O)c2cnc3ccc(F)cc3c2N2CCC(C)(C#N)CC2)CCN1S(C)(=O)=O [Example 226, (S)-1-(6-fluoro-3-(3-methyl-4-(methylsulfonyl)piperazine-1-carbonyl)quinolin-4-yl)-4-methylpiperidine-4-carbonitrile] | 1000 to 10000
CS(=O)(=O)N1CCN(C(=O)c2cnc3ccc(F)cc3c2N2CCC3(CC2)C(=O)Cc2ccccc23)CC1 [Example 247, 1′-(6-fluoro-3-(4-(methylsulfonyl)piperazine-1-carbonyl)quinolin-4-yl)spiro[indene-1,4′-piperidin]-2(3H)-one] | 1000 to 10000
O=C(c1cnc2ccc(F)cc2c1N1CCC2(CC1)OCCO2)N1CCN(C(=O)C2CC2)CC1 [Example 31, (4-(cyclopropanecarbonyl)piperazin-1-yl)(6-fluoro-4-(1,4-dioxa-8-azaspiro[4.5]decan-8-yl)quinolin-3-yl)methanone] | 1000 to 10000
O=C(c1cnc2ccccc2c1N1CCC2(CC1)OCCO2)N1CCN(C(=O)C2CC2)CC1 [Example 42, (4-(1,4-dioxa-8-azaspiro[4.5]decan-8-yl)quinolin-3-yl)(4-(cyclopropanecarbonyl)piperazin-1-yl)methanone] | > 10000
CC1(C#N)CCN(c2c(C(=O)N3CCN(C(=O)C4CC4)CC3)cnc3ccc(F)cc23)CC1 [Example 64, 1-(3-(4-(cyclopropanecarbonyl)piperazine-1-carbonyl)-6-fluoroquinolin-4-yl)-4-methylpiperidine-4-carbonitrile] | 1000 to 10000
O=C(c1cnc2ccc(F)cc2c1N1CCC2(CCCO2)CC1)N1CCN(C(=O)C2CC2)CC1 [Example 66, (4-(cyclopropanecarbonyl)piperazin-1-yl)(6-fluoro-4-(1-oxa-8-azaspiro[4.5]decan-8-yl)quinolin-3-yl)methanone] | 1000 to 10000
CS(=O)(=O)N1CCN(C(=O)c2cnc3ccc(F)cc3c2N2CCC3(CC2)Cc2ccccc2C3=O)CC1 [Example 201, 1′-(6-fluoro-3-(4-(methylsulfonyl)piperazine-1-carbonyl)quinolin-4-yl)spiro[indene-2,4′-piperidin]-1(3H)-one] | 1000 to 10000
COc1ccc2ncc(CN3CCN(C(=O)C4CC4)CC3)c(N3CCC4(CC3)OCCO4)c2c1 [Example 57, Cyclopropyl(4-((6-methoxy-4-(1,4-dioxa-8-azaspiro[4.5]decan-8-yl)quinolin-3-yl)methyl)piperazin-1-yl)methanone] | > 10000

Results, then the compound that gave them:

IC50 [nM] | SMILES
1000 to 10000 | CS(=O)(=O)N1CCN(C(=O)c2cnc3ccc(F)cc3c2N2CCC(CO)(c3ccccc3)CC2)CC1 [Example 256, (6-fluoro-4-(4-(hydroxymethyl)-4-phenylpiperidin-1-yl)quinolin-3-yl)(4-(methylsulfonyl)piperazin-1-yl)methanone]
500 to 1000 | N#CC1(CC2CC2)CCN(c2c(C(=O)N3CCN(C(=O)C4CC4)CC3)cnc3ccc(F)cc23)CC1 [Example 242, 1-(3-(4-(cyclopropanecarbonyl)piperazine-1-carbonyl)-6-fluoroquinolin-4-yl)-4-(cyclopropylmethyl)piperidine-4-carbonitrile]
< 500 | CC(C)(C#N)c1ccc(-c2c(C(=O)N3CCN(C(=O)C4CC4)CC3)cnc3ccc(F)cc23)cc1 [Example 264, 2-(4-(3-(4-(cyclopropanecarbonyl)piperazine-1-carbonyl)-6-fluoroquinolin-4-yl)phenyl)-2-methylpropanenitrile]
1000 to 10000 | CC1(C#N)CCN(c2c(C(=O)N3CCN(S(C)(=O)=O)CC3)cnc3ccc(F)cc23)CC1 [Example 86, 1-(6-fluoro-3-(4-(methylsulfonyl)piperazine-1-carbonyl)quinolin-4-yl)-4-methylpiperidine-4-carbonitrile]
1000 to 10000 | CC1(C#N)CCN(c2c(C(=O)N3CCN(S(C)(=O)=O)CC3)cnc3sccc23)CC1 [Example 217, 4-methyl-1-(5-(4-(methylsulfonyl)piperazine-1-carbonyl)thieno[2,3-b]pyridin-4-yl)piperidine-4-carbonitrile]
< 500 | CS(=O)(=O)N1CCN(C(=O)c2cnc3cc(F)c(F)cc3c2-c2ccc(C3(C#N)CC3)cc2)CC1 [Cpd. 323, 1-(4-(6,7-difluoro-3-(4-(methylsulfonyl)piperazine-1-carbonyl)quinolin-4-yl)phenyl)cyclopropane-1-carbonitrile]
< 500 | COc1ccc2ncc(C(=O)N3CCN(S(C)(=O)=O)CC3)c(N3CCC(C#N)(c4ccccc4)CC3)c2c1 [Cpd. 317, 1-(6-methoxy-3-(4-(methylsulfonyl)piperazine-1-carbonyl)quinolin-4-yl)-4-phenylpiperidine-4-carbonitrile]
< 500 | CS(=O)(=O)N1CCN(C(=O)c2cnc3ccsc3c2N2CCC(C#N)(c3ccccc3)CC2)CC1 [Example 285, 1-(6-(4-(methylsulfonyl)piperazine-1-carbonyl)thieno[3,2-b]pyridin-7-yl)-4-phenylpiperidine-4-carbonitrile]
< 500 | N#CC1(c2ccccc2)CCN(c2c(C(=O)N3CCN(C(=O)C4CC4)CC3)cnc3ccc(F)cc23)CC1 [Example 208, 1-(3-(4-(cyclopropanecarbonyl)piperazine-1-carbonyl)-6-fluoroquinolin-4-yl)-4-phenylpiperidine-4-carbonitrile]
< 500 | CC(C)(C#N)c1ccc(-c2c(C(=O)N3CCN(S(C)(=O)=O)CC3)cnc3ccc(F)cc23)cc1 [Example 211, 2-(4-(6-fluoro-3-(4-(methylsulfonyl)piperazine-1-carbonyl)quinolin-4-yl)phenyl)-2-methylpropanenitrile]
500 to 1000 | CC1(C#N)CCN(c2c(C(=O)N3CCN(C(=O)C4CC4)CC3)cnc3ccsc23)CC1 [Example 233, 1-(6-(4-(cyclopropanecarbonyl)piperazine-1-carbonyl)thieno[3,2-b]pyridin-7-yl)-4-methylpiperidine-4-carbonitrile]
< 500 | CS(=O)(=O)N1CCN(C(=O)c2cnc3ccc(F)cc3c2N2CCC(C#N)(c3ccccc3)CC2)CC1 [Example 209, 1-(6-fluoro-3-(4-(methylsulfonyl)piperazine-1-carbonyl)quinolin-4-yl)-4-phenylpiperidine-4-carbonitrile]
< 500 | CN(C)S(=O)(=O)N1CCN(C(=O)c2cnc3ccc(F)cc3c2N2CCC(C)(C#N)CC2)CC1 [Example 157, 4-(4-(4-cyano-4-methylpiperidin-1-yl)-6-fluoroquinoline-3-carbonyl)-N,N-dimethylpiperazine-1-sulfonamide]
